The results in this text go back to patent US10765629B2 (Allergan, Inc., priority 2017, dated 2020).

The series is described as follows: Stability study at 40° C./75% RH (appearance; potency by HPLC). In kind it is physicochemical. How it is done: All the vials were sealed with HPLC vial cap. The Time 0 samples were in −20° C. freezer and all other samples in 40° C./75% RH chamber. […] After appropriate dilution, analyzed the samples by HPLC according to the method below:
The standard stock solution of Compound 1 was prepared by dissolving 1.18 mg Compound 1 with 25 ml mixture of acetonitrile and water (acetonitrile:water=1:1). The stock solution was serially further diluted with a dilution factor of 2 to obtain a standard calibration curve.

With `NC(=O)CCC/C=C\C[C@@H]1[C@@H](/C=C/[C@@H](O)CCc2cc(Cl)sc2Cl)[C@H](O)C[C@@H]1O` [Compound 1, (Z)-7-((1R,2R,3R,5S)-2-((S,E)-5-(2,5-dichlorothiophen-3-yl)-3-hydroxypent-1-en-1-yl)-3,5-dihydroxycyclopentyl)hept-5-enamide], the “Physical state on storage” value is, setting by setting: (40° C./75% RH, 12 weeks) “became an oil”; (40° C./75% RH, within hours) “turns into oil”. The Appearance entry is “Oil” (Day 1, 40° C./75% RH); “White” (Time 0, sample kept in −20° C. freezer); “Oil” (Week 1, 40° C./75% RH); “Oil” (Week 2, 40° C./75% RH); “Oil” (Week 4, 40° C./75% RH); “Oil” (Week 8, 40° C./75% RH). The Appearance entry (Week 12, 40° C./75% RH) is listed as “Oil”. Under “end of the 12-week study, 40° C./75% RH, HPLC”, the Potency loss entry is recorded as “about 20%”.
